Patent publication US20080279961A1, “TELOMERE TARGETING AGENTS AS STEM CELLS DIRECTED TREATMENTS” (priority 2007, published 2008)
Where “and” joins values, the source holds several entries; their conditions need not be identical. Equal values may be shown once.

Experiments:
gamma-H2AX = gamma-H2AX immunoblotting and immunofluorescence; format: cell-based, human; details: UXF1138L cells, 1 μM, Western blot
Description: During phosphorylated H2AX (gamma-H2AX) and hTERT immunofluorescence staining, approximately 75,000 UXF1138L cells/chamber were seeded onto 8 chamber glass slides (Costar) 24 hrs prior to RHPS4 treatment. After exposure to 1 μM RHPS4 for 1, 6, or 24 hours, cells were washed twice with PBS and air dried. Cells were fixed and permeabilized by immersion into ice-cold methanol/acetone (1:1; 3×1 min). Slides were blocked overnight at 4° C. with 5% BSA in PBS and washed with PBS (3×) before incubation (2 hrs) with anti-gamma-H2AX mouse monoclonal antibody (Upstate, Waltham, Mass.; 1:250 in PBS) or hTERT monoclonal antibody (NCL-L-hTERT Novacastra, Newcastle, UK; 1:40) respectively. Control cells were probed with mouse IgG (Santa Cruz Biotechnolog Inc., Santa Cruz, Calif.). Slides were washed 3× with PBS, before incubation with a goat anti-mouse FITC conjugated secondary antibody (Sigma; 1:100, 3 h). Following further PBS washes (3×), slides were incubated with 1:5000 DAPI (2 mg/ml; Sigma), washed 3× in PBS and mounted with Vectashield mounting media. Images were visualized as described above.
During immunoblotting for gamma-H2AX, cells were grown to 50 to 80% confluent in 6-well plates (Falcon) and treated with 1 μM RHPS4 for 1, 6, and 24 hours. […] Histones were dissolved in water and protein concentration was determined using the BioRad protein assay (BioRad Laboratories, Hercules Calif.). […]

UXF1138L xenografts = test: tumor growth inhibition of subcutaneous xenografts; format: in vivo, nude mice
[1] = tolerability in xenograft studies (body weight, deaths, MTD)
Description: For the first in vivo experiment, tumor fragments (5×5 mm) from untreated donor animals were implanted subcutaneously into both flanks of recipient mice. Treatment was initiated 6 days after transplantation (=day 0, median tumor volume of ˜70 mm^3). Animals were randomized into groups following Lindner's randomization tables and treated by oral gavage with 5 mg/kg/d RHPS4 or vehicle (phosphate buffered saline) respectively (n=5-8 animals per group). […] Drug administration was repeated twice weekly for 8 times (Q3dx8) after randomization. Tumor growth was followed twice weekly by serial caliper measurement, body weights were recorded, and tumor volumes were calculated using the standard formula (length×width^2)/2, where length is the largest dimension and width the smallest dimension perpendicular to the length (Alley et al., 2004; Geran et al., 1972). The median relative tumor volume was plotted against time. Relative tumor volumes were calculated for each single tumor by dividing the tumor volume on day X by that on day 0 (time of randomization). Growth curves were analyzed in terms of tumor inhibition (treated/control, T/C, calculated as median tumor weight of treated divided by median tumor weight of control animals times 100). Statistical data analysis was done using non-parametrical Wilcoxon Mann-Whitney statistics. Median relative tumor volumes of each treatment group were compared with those of the vehicle control groups. P values less than 0.05 were considered statistically significant. SPSS 2000, SYSTAT version 10 software was used.
To conduct combination treatment with Paclitaxel, after 4 serial propagations of RHPS4 treated tumor tissue in nude mice (FIG. 1), RHPS4 was combined with Paclitaxel. Single agent Paclitaxel was given at 20 mg/kg i.v. on days 1 and 15. In combination with RHPS4 (given at 5 mg/kg p.o. twice weekly), only a single dose of Paclitaxel (20 mg/kg i.v.) was administered on day 1. Tumor growth parameters and body weight were assessed as described above.

COS(=O)(=O)[O-].Cc1cc2c3c([n+](C)c4ccc(F)cc4c3c1)-c1cc(F)ccc1N2C [RHPS4, 3,11-difluoro-6,8,13-trimethyl-8H-quino[4,3,2-kl]acridinium methosulfate]
time at which gamma-H2AX expression was seen (gamma-H2AX): 1 h
tumor growth inhibition, maximal extent compared to control (UXF1138L xenografts; Passage 3, day 28): 33%
day of optimal Test/Control (UXF1138L xenografts; Passage #1): (16) day
opt. Test/Control [%] (UXF1138L xenografts; Passage #1, median tumor volume, 5 mg/kg p.o.): 63%
day of optimal Test/Control (UXF1138L xenografts; Passage #2): (7) day
opt. Test/Control [%] (UXF1138L xenografts; Passage #2, median tumor volume, 5 mg/kg p.o.): 100%
opt. Test/Control [%] (UXF1138L xenografts; Passage #3, median tumor volume, 5 mg/kg p.o., 5 mg/kg): 67% and 67.7%
day of optimal Test/Control (UXF1138L xenografts; Passage #4): (16) day
opt. Test/Control [%] (UXF1138L xenografts; Passage #4, RHPS4 5 mg/kg p.o. twice weekly, Paclitaxel 20 mg/kg i.v.): 62%
antitumor response in words (UXF1138L xenografts; Passage #4 UXF1138L xenografts): only marginal growth inhibition
oral single agent activity (UXF1138L xenografts; any of the 4 passages): did not show oral single agent activity
Deaths [n/n], drug related death per mice per group ([1]; Passage #1): 0/5
Deaths [n/n], drug related death per mice per group ([1]; Passage #2): 0/6
Deaths [n/n], drug related death per mice per group ([1]; Passage #3): 0/8
Deaths [n/n], drug related death per mice per group ([1]; Passage #4): 0/5
tolerability ([1]; mouse, in vivo): well tolerated
1/2 maximal tolerated dose ([1]; oral, mouse strain used): 5 mg/kg/day
